Assay results as given in patent US20250051332A1 (priority 2022, published 2025).
Like-named read-outs stand apart in the source and are kept apart here.

Key:
[1] = biological target: T1, κOR (Homo sapiens, UniProt P41145); test: cell-based; format: cell-based; details: for Emax: read-out: κOR cAMP inhibition Emax ± SEM (%)
T1 construct: host or cells: CHO-K1

[2] = biological target: T2, μOR (Homo sapiens, UniProt P35372); test: cell-based; format: cell-based; details: for Emax: read-out: μOR cAMP inhibition Emax ± SEM (%)
T2 construct: host or cells: CHO-K1

[3] = biological target: HERG (Homo sapiens, UniProt Q12809); details: data from reference 40; cited from earlier work
[4] = biological target: T1, κOR; test: PathHunter β-arrestin-2 recruitment assay at the κOR; format: cell-based; details: FIG. 6
Text: Cell Lines and Cell Culture. To perform the HitHunter cAMP accumulation assay, Chinese hamster ovary cells (CHO-K1) stably expressing human μ-opioid receptor (OPRM1, catalog no. 95-0107C2, DiscoverX, Fremont, CA, USA), K-opioid receptor (OPRK1, catalog no. 95-0088C2, DiscoverX, Fremont, CA, USA), or 6-opioid receptor (OPRD1, catalog no. 95-0108C2, DiscoverX, Fremont, CA, USA) were maintained at 80% confluence in F-12 media supplemented with 10% fetal bovine serum, 1% penicillin/streptomycin/L-glutamine, and 800 μg/mL G418. To perform the PathHunter β-arrestin-2 recruitment assay, U2OS-human κ opioid receptor (κOR) cells stably expressing the κOR and β-arrestin-2 (RRID:CVCL_LA97, DiscoverX, Fremont, CA, USA) were maintained in McCoy's 5A media supplemented with 10% FBS and containing 500 μg/mL geneticin and 250 μg/mL hygromycin. All cells were grown 37° C. under 5% CO2 in a humidified incubator under sterile conditions in T75 flasks. During passaging, cells were dislodged from the flask following a 3-5 min incubation with 0.25% trypsin or non-enzymatic detachment reagent and subcultivated at ratios of 1:10 (CHO) and 3:10 (U2OS).
PathHunter β-arrestin-2 Recruitment Assay. The R-arrestin-2 recruitment assay was performed using U2OS-human (κOR) PathHunter R-arrestin-2 cells (DiscoverX) as previously described.^77

[5] = test system: 320 non-olfactory GPCRs; test: PRESTO-Tango GPCRome screen of βArr2 recruitment; format: cell-based; details: 3 μM, FIG. 7
[6] = read-out: κOR cAMP inhibition EC50
[7] = read-out: μOR cAMP inhibition EC50

T2 sequence (P35372 whole entry): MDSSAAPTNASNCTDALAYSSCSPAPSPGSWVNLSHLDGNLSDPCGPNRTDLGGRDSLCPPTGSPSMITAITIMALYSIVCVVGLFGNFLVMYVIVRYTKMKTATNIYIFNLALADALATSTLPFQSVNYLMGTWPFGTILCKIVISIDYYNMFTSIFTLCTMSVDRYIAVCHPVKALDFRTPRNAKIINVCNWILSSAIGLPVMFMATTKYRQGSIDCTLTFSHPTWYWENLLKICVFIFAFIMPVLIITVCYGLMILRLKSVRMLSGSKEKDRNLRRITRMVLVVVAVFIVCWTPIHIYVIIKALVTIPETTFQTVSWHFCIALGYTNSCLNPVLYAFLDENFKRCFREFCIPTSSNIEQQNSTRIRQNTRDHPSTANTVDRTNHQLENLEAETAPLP
T1 sequence (P41145 whole entry): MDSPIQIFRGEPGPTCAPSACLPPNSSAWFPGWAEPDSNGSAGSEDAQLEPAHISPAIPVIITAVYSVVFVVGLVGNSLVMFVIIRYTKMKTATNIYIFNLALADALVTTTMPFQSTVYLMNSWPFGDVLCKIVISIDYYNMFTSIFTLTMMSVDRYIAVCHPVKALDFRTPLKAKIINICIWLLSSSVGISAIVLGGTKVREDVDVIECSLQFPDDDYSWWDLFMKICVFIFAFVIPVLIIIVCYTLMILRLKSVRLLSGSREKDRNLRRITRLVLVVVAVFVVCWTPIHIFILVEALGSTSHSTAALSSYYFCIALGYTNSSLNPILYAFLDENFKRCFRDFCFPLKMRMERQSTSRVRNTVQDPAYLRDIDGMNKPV
Chain of HERG (Q12809 whole entry): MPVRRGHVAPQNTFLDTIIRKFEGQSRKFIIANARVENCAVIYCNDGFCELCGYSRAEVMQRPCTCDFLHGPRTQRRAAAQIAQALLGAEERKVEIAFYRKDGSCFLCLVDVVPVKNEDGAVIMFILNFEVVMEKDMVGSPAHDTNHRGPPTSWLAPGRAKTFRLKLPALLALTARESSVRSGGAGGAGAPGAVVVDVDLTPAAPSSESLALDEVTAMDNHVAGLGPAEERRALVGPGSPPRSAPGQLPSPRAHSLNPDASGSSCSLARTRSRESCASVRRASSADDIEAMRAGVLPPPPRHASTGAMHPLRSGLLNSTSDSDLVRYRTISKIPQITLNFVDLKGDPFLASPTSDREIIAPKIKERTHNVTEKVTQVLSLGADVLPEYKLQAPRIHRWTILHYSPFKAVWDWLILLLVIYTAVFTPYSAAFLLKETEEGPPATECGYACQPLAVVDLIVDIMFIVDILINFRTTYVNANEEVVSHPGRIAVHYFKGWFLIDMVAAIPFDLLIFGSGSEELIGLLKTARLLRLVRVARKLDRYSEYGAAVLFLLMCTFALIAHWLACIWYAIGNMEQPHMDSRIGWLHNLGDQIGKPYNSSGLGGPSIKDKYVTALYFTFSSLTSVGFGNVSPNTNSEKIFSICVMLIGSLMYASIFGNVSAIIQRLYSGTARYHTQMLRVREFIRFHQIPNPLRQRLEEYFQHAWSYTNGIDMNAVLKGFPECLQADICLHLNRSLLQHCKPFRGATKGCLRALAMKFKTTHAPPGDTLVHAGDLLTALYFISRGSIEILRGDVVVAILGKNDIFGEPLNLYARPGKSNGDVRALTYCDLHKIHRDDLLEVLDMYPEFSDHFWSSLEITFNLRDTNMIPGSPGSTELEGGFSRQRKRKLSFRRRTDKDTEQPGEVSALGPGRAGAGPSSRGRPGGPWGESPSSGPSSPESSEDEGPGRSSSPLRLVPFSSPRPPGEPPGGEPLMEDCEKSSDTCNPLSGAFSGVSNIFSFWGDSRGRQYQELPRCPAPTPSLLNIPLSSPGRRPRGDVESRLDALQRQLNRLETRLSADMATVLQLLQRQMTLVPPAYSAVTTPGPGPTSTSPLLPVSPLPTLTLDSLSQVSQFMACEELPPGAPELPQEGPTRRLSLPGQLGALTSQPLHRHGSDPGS

With `C/C=C1/CN2CC[C@]34C(=C(C(=O)OC)[C@H]1C[C@H]23)Nc1ccc(-c2ccccc2)cc14` [Compound 4, 10-Phenylakuammicine] the “κOR cAMP inhibition pEC50 ± SEM” value [1] was 7.8 ± 0.1, the EC50 [1, 6] was 15 nM and the Emax [1] was 101 ± 2%. The EC50 [2] was 0.72 to 0.84 µM, the “μOR cAMP inhibition pEC50 ± SEM” value [2] was 6.1 ± 0.1 and the EC50 [2, 7] was 0.78 µM. The Emax [2] was 106 ± 6%.
In the case of `C/C=C1/CN2CC[C@]34C(=C(C(=O)OC)[C@H]1C[C@H]23)Nc1ccccc14` [Compound 1, Akuammicine, reference compound], the Emax [1] is given as 91 ± 7% and the “Ki (nM) at HERG” value [3] is given as “— (“—” indicates compound produced less than 50% displacement of radioligand in primary binding screen at 10 μM.)”.
With `C/C=C1/CN2CC[C@]34C(=C(C(=O)OC)[C@H]1C[C@H]23)Nc1ccc(-c2ccoc2)cc14` [Compound 5, 10-(3-Furanyl)akuammicine] the “fold increase in κOR potency relative to 1” value [1] was > 1,300, the “κOR cAMP inhibition pEC50 ± SEM” value [1] was 9.1 ± 0.1 and the EC50 [1, 6] was 0.88 nM. For the same molecule, the Emax [1] was 102 ± 2%, the EC50 [2] was 0.72 to 0.84 µM and the “μOR cAMP inhibition pEC50 ± SEM” value [2] was 6.1 ± 0.2. The EC50 [2, 7] was 0.72 µM, the Emax [2] was 99 ± 12% and the “βArr2 recruitment compared with U50,488” value [4] was “significantly less recruitment of βArr2 than U50488 at concentrations <10 μM”.
With `C/C=C1/C[N+]2(Cc3ccccc3)CC[C@]34C(=C(C(=O)OC)[C@H]1C[C@@H]32)Nc1ccccc14` (stereo partly drawn) [Compound 20, N-4-Benzylakuammicine] the Emax [1] was < 10%, the “μOR cAMP inhibition pEC50 ± SEM” value [2] was 5.6 ± 0.1 and the EC50 [2, 7] was 2.3 µM. It also gave an Emax [2] of 112 ± 6%.
For `C/C=C1/C[N+]2(CCC)CC[C@]34C(=C(C(=O)OC)[C@H]1C[C@@H]32)Nc1ccccc14` (stereo partly drawn) [Compound 18, N-4-Propylakuammicine], the Emax [1] was < 10% and the Emax [2] was < 10%.
In the case of `C/C=C1/C[N+]2(C)CC[C@]34C(=C(C(=O)OC)[C@H]1C[C@@H]32)Nc1ccccc14` (stereo partly drawn) [Compound 16, N-4-Methylakuammicine], the Emax [1] is reported as < 10% and the Emax [2] is reported as < 10%.
In the case of `C=CC[N+]12CCC34C(=C(C(=O)OC)C(CC31)C(=CC)C2)Nc1ccccc14` (stereo not drawn) [Compound 17, N-4-Allylakuammicine], the EC50 [1] is reported as > 10000 nM, the EC50 [1, 6] is reported as > 10000 nM and the Emax [1] is reported as < 10%. For the same molecule, the EC50 [2] was > 10 µM, the EC50 [2, 7] was > 10 µM and the Emax [2] was < 10%.
With `CC=C1C[N+]2(CC3CC3)CCC34C(=C(C(=O)OC)C1CC32)Nc1ccccc14` (stereo not drawn) [Compound 19, N-4-Cyclopropylmethylakuammicine] the EC50 [1] was 4700 nM, the “fold reduced κOR potency compared to 1” value [1] was “about 4 fold” and the Emax [1] was 113 ± 24%. For the same molecule, the EC50 [2] was > 10 µM, the EC50 [2, 7] was > 10 µM and the Emax [2] was < 10%.
With `CC=C1C[N+]2(C)CCC34C(=C(C(=O)OC)C1CC32)Nc1ccc(Br)cc14` (stereo not drawn) [Compound 23, 10-Bromo-N-4-methylakuammicine] the EC50 [1] was 940 nM, the Emax [1] was 102 ± 7% and the EC50 [2] was > 10 µM. The EC50 [2, 7] was > 10 µM and the Emax [2] was < 10%.
With `C/C=C1/CN2CC[C@]34c5cc(Br)ccc5NC3C(C(=O)OC)[C@H]1C[C@H]24` (stereo partly drawn) [Compound 21, 10-Bromo-2,16-dihydroakuammicine] the “κOR cAMP inhibition pEC50 ± SEM” value [1] was 7.3 ± 0.1, the EC50 [1, 6] was 47 nM and the Emax [1] was 100 ± 4%.
In the case of `CC[C@@H]1CN2CC[C@]34C(=C(C(=O)OC)[C@H]1C[C@H]23)Nc1ccccc14` [Compound 13, 19,20-dihydroakuammicine], the “κOR cAMP inhibition Emax ± SEM (%)” value [1] is reported as 99 ± 9%, the “κOR cAMP inhibition pEC50 ± SEM” value [1] is reported as 5.8 ± 0.1 and the EC50 [1, 6] is reported as 1600 nM. For the same molecule, the “μOR cAMP inhibition Emax ± SEM (%)” value [2] was <10%, the “μOR cAMP inhibition pEC50 ± SEM” value [2] was “— (key: — = no activity observed at 10 μM.)” and the EC50 [2, 7] was > 10 µM.
With `CC=C1CN2CCC34c5cc(I)ccc5NC3C(C(=O)OC)C1CC24` (stereo not drawn) [Compound 22, 10-Iodo-2,16-dihydroakuammicine] the EC50 [1] was 24 nM, the EC50 [2] was > 10 µM and the EC50 [2, 7] was > 10 µM.
With 19-Hydroxyalstolucine [Compound 12] the “agonist activity at the κOR” value [1] was “no agonist activity”, the “κOR cAMP inhibition Emax ± SEM (%)” value [1] was <10% and the “κOR cAMP inhibition pEC50 ± SEM” value [1] was “— (key: — = no activity observed at 10 μM.)”. For the same molecule, the EC50 [1, 6] was > 10000 nM, the “agonist activity at the μOR” value [2] was “no agonist activity” and the “μOR cAMP inhibition Emax ± SEM (%)” value [2] was <10%. For the same molecule, the “μOR cAMP inhibition pEC50 ± SEM” value [2] was “— (key: — = no activity observed at 10 μM.)” and the EC50 [2, 7] was > 10 µM.
For `C/C=C1/C[N+]2(CC3CC3)CC[C@]34C(=C(C(=O)OC)[C@H]1C[C@@H]32)Nc1ccc(Br)cc14` (stereo partly drawn) [Compound 25, 10-Bromo-N-4-cyclopropylmethylakuammicine], the “κOR cAMP inhibition pEC50 ± SEM” value [1] was 6.7 ± 0.1, the EC50 [1, 6] was 210 nM and the Emax [1] was 94 ± 5%. The Emax [2] was < 10%.
For `C=CC[N+]12CCC34C(=C(C(=O)OC)C(CC31)C(=CC)C2)Nc1ccc(Br)cc14` (stereo not drawn) [Compound 24, 10-Bromo-N-4-allylakuammicine], the EC50 [1] was 650 nM, the Emax [1] was 100 ± 7% and the EC50 [2] was > 10 µM. The EC50 [2, 7] was > 10 µM and the Emax [2] was < 10%.
In the case of `CC=C1CN2CCC34C(=C(C(=O)OC)C1CC23)Nc1ccc(C#N)cc14` (stereo not drawn) [Compound 7, 10-Cyanoakuammicine], the EC50 [1] is reported as 81 nM, the Emax [1] is reported as 102 ± 6% and the EC50 [2] is reported as > 10 µM. The “agonist activity at the μOR” value [2] was “without activating the μOR”, the EC50 [2, 7] was > 10 µM and the Emax [2] was < 10%.
With `CC=C1CN2CCC34C(=C(C(=O)OC)C1CC23)Nc1ccc([N+](=O)[O-])cc14` (stereo not drawn) [Compound 8, 10-Nitroakuammicine] the EC50 [1] was 160 nM, the “Selectivity index = μOR EC50/κOR EC50” value [1] was 25 and the Emax [1] was 96 ± 5%. The EC50 [2] was 4 µM, the Emax [2] was < 10% and the “βArr recruitment against GPCRome” value [5] was “induced recruitment of a number of non-opioid targets”.
With `CCC1CN2CCC34C(=C(C(=O)OC)C1CC23)Nc1ccc(Br)cc14` (stereo not drawn) [Compound 27, 10-Bromo-19,20-dihydroakuammicine] the “Selectivity index = μOR EC50/κOR EC50” value [1] was 35, the “κOR cAMP inhibition pEC50 ± SEM” value [1] was 7.5 ± 0.1 and the EC50 [1, 6] was 31 nM. The Emax [1] was 100 ± 5%, the “μOR cAMP inhibition pEC50 ± SEM” value [2] was 6.0 ± 0.1 and the EC50 [2, 7] was 1.1 µM. It also gave an Emax [2] of 107 ± 5%.
For `C/C=C1/CN2CC[C@]34c5ccccc5NC3C(C(=O)OC)[C@H]1C[C@H]24` (stereo partly drawn) [Compound 14, 2,16-dihydroakuammicine], the EC50 [1] was > 10000 nM, the “agonist activity at the κOR” value [1] was “all κOR agonist activity is abolished or significantly diminished” and the EC50 [1, 6] was > 10000 nM. For the same molecule, the Emax [1] was < 10%, the EC50 [2] was > 10 µM and the EC50 [2, 7] was > 10 µM. For the same molecule, the Emax [2] was < 10%.
In the case of `COC(=O)C1=C2Nc3ccccc3[C@@]23CCN2C[C@@](O)([C@@H](C)O)[C@@H]1C[C@H]23` [Compound 10, 19R,20R-Dihydroxyakuammicine], the “agonist activity at the κOR” value [1] is reported as “no agonist activity” and the “agonist activity at the μOR” value [2] is reported as “no agonist activity”.
For `C/C=C1/CN2CC[C@]34C(=C(C(=O)OC)[C@H]1C[C@H]23)Nc1ccc(-c2ccsc2)cc14` [Compound 6, 10-(3-Thienyl)akuammicine], the “κOR cAMP inhibition pEC50 ± SEM” value [1] was 8.1 ± 0.1, the EC50 [1, 6] was 7.7 nM and the Emax [1] was 104 ± 3%. For the same molecule, the EC50 [2] was 0.72 to 0.84 µM, the “μOR cAMP inhibition pEC50 ± SEM” value [2] was 6.1 ± 0.1 and the EC50 [2, 7] was 0.84 µM. It also gave an Emax [2] of 107 ± 3%.
With `CCC1CN2CCC34c5ccccc5NC3C(C(=O)OC)C1CC24` (stereo not drawn) [Compound 15, 2,16,19,20-tetrahydroakuammicine] the EC50 [1] was > 10000 nM, the “agonist activity at the κOR” value [1] was “all κOR agonist activity is abolished or significantly diminished” and the EC50 [1, 6] was > 10000 nM. The Emax [1] was < 10%, the EC50 [2] was > 10 µM and the EC50 [2, 7] was > 10 µM. For the same molecule, the Emax [2] was < 10%.
